Experiments:
[1] = in vitro; format: in vitro ADME, human
Method: The skin permeation of OXB was evaluated using 6% OXB formulations with and without RsC1 in a Franz diffusion cell (FIG. 9 and Table 1).
The amounts of OXB remaining on the skin surface, inside the skin, and on the surface of the donor chamber cap were also determined at the end of the skin permeation experiments. The average total recovery of OXB from the permeation study was approximately 75%.
In addition, the amount of RsC1 that permeated through the skin to the receptor chamber was determined using an HPLC assay.
Rinse 1: rinsing once using receptor chamber solution (PBS with 0.02% sodium azide and 3% cyclodextrin); Rinse 2: rinsing four times using a methanol/water (85:15) solution. The values for the rinses, cut-up skin, and donor chamber cap were adjusted to correct for the extraction method and RsC1 interference during the OXB assay.
Skin permeation studies of OXB were performed using split-thickness human skin in a Franz diffusion cell with a 0.7 cm2 diffusion area. The skin samples were labeled with the code of the skin donor (n=3, CC, RT, or SL) and the same group of skin donors was used in each experiment. To prepare the skin samples, the cadaver skin was cut into 1.5 cm×1.5 cm pieces, thawed in Petri dishes with PBS at room temperature for 2 h, and then patted dry with Kimwipes before being mounted onto the diffusion cell with the stratum corneum side facing up. PBS containing 0.02% sodium azide as a preservative and 3% cyclodextrin as a solubilizing agent for OXB was used as the solution in the receptor chamber. The TEWL of the skin sample was measured to ensure skin integrity before the permeation study. For TEWL measurements, a vapometer was placed on top of the donor chamber of the diffusion cell and the measurement was repeated until a constant TEWL value was obtained (2-3 measurements, 15 min apart). Only skin samples with TEWL values of <10 g/m2/h were used for permeation experiments.
After the TEWL measurement, the skin in the diffusion cell was allowed to equilibrate for 1 h. During this equilibration period, the skin surface was maintained at 32±1° C. The receptor medium was stirred with a magnetic stirrer at 600 rpm to ensure uniform mixing. The permeation study was initiated by applying 2 mg/cm2 of the test formulation on the skin surface in the diffusion cell. The dose of 2 mg/cm2 was selected based on FDA guidelines. The test formulations were 6% OXB and 6% OXB+RsC1 (1:1) in ethanol. At 0, 3, 6, 10, 12, and 24 h after dosing, 0.5 mL samples were withdrawn from the receptor chamber and immediately replaced with the same volume of fresh PBS solution to maintain a constant receptor solution volume. At the end of the experiment, the residual formulation in the donor compartment was recovered by rinsing once with the receptor chamber solution (PBS with 0.02% sodium azide and 3% cyclodextrin) and four times with methanol/water (85:15) solution (each time with 0.5 ml for 30 s). The treated areas were then dried with Kimwipes. The donor chamber cap and gasket were soaked in 5 ml of methanol/water (85:15) solution for 30 min. The skin was then removed from the diffusion cell, cut into small pieces, and extracted with 4×1 ml of methanol/water (85:15) solution. Blank skin samples were used as the control. The samples collected from the receptor chamber, the rinses, and skin extraction were centrifuged (3000×g for 15 min), and OXB content in the supernatant was determined using HPLC. Statistical analysis was performed using the Student's unpaired t-test and p<0.05 was considered significant.
The HPLC assay was conducted using a Shimadzu HPLC system (Shimadzu Scientific Instruments, Inc., Addison, IL) with an LC-20 AT pump, an SPD-20A UV-Vis detector, a SL-20A autoinjector, and a Microsorb-MV100-5 C18 column (150×4.6 mm, Agilent Technologies, Santa Clara, CA). The mobile phase was methanol and water at a ratio of 85:15. The flow rate was 0.8 ml/min. […]

[2] = background, cited from earlier work

| Total OXB recovered, Average (%) ([1]; human, 24 h, 6 %) | recovery at 24 h, 6 % ([1]; human, Average total recovery of OXB from the permeation study) | recovery at 24 h, 6 % ([1]; human, Recovery of OXB, Donor chamber cap, Average (%)) | recovery at 24 h, 6 % ([1]; human, Recovery of OXB, Rinse 1, Average (%)) | recovery at 24 h, 6 % ([1]; human, Recovery of OXB, Rinse 2, Average (%)) | recovery at 24 h, 6 % ([1]; human, Recovery of OXB, Skin cut-up, Average (%)) | Amount of RsC1 permeated through the skin to the receptor chamber [1] | Compound | Fraction of OXB that can penetrate human skin ([2]; Franz diffusion cell) | Fraction of OXB entering the bloodstream and eliminated through urine [2] |
| --- | --- | --- | --- | --- | --- | --- | --- | --- | --- |
| 70.3% | ~75% | 0.6% | 24% | 22.9% | 2.7% | – | COc1ccc(C(=O)c2ccccc2)c(O)c1 [OXB, Oxybenzone] | 10% | 0.4% |
| – | – | – | – | – | – | negligible | CC1c2cc(c(O)cc2O)C(C)c2cc(c(O)cc2O)C(C)c2cc(c(O)cc2O)C(C)c2cc1c(O)cc2O (stereo not drawn) [RsC1, C-methylresorcin[4]arene] | – | – |

From patent publication US20260076885A1, “Complexation of Oxybenzone with C-methylresorcin[4]arene” (University of Cincinnati, priority 2021, published 2026)
